Source: US20080269202A1, “Novel 2,3-benzodiazepine derivatives and their use as antipsychotic agents” (Teva Pharmaceutical Industries Ltd., priority 2007, published 2008)
Like-named read-outs stand apart in the source and are kept apart here. Blank lines part the entries; values can stand above or below the molecule they belong to.

Assays:
[1] = system: apomorphine-induced climbing; experiment: apomorphine-induced climbing test in mice; type: in vivo, CD1 mice; conditions: for ED50: Mus musculus, read-out: Climbing ED50 (mg/kg ip.)
Description: (§1) Anti-apomorphine effects were investigated in the climbing test in mice mediated through the mesolimbic and stereotypy test in rats mediated through the nigrostriatal system. Conventional antipsychotics antagonize both apomorphine-induced behaviours, while known atypical antipsychotics are weaker against apomorphine stereotypy.
The climbing test was carried out according to Protais et al. (Protais, P. et al. Psychopharmacologia, 1976, 50, 1.) Stereotyped behavior was induced in food deprived (for 16 hours) male CD1 mice weighing 20-25 g body by apomorphine HCl (SIGMA) in a s.c. dose of 2 mg/kg. Mice were placed individually into cylinders having 12 cm diameter and consisting of vertical bars of 2 mm diameter where apomorphine treated animals tended to adopt a vertical position in contrary to vehicle treated controls. Test substances were applied ip. 30 min before apomorphine.
10 and 20 min after apomorphine treatment the climbing behaviour was evaluated by scores of 0-2. 10 mice/group were used. The scores of the two readings were summed individually, meaned and compared to the control. The ED50 values were calculated by Litchfield-Wilcoxon's method (Litchfield Jr. J. T., Wilcoxon, F. J. Pharmacol. Exp. Ther. 1949, 96, 49,).

[2] = system: DOPA accumulation in eminentia mediana; experiment: DOPA accumulation in eminentia mediana after NSD-1015; type: in vivo, Sprague-Dawley rats; conditions: for DOPA levels (pmol/mg prot): rat eminentia mediana, mean ± SEM
Description: Acute administration of atypical antipsychotics results in enhanced accumulation of dihydroxyphenylalanine (DOPA) in the […] after the inhibition of DOPA decarboxylase. In contrast, DOPA accumulation is not altered by the typical antipsychotics (Andersson, G, Albinsson, A, Pettersson, G, Arzneimittelforschung. 1990, 40, 237; Gudelsky, G. A., Meltzer, H. Y. Neuropsychopharmacology, 1989, 2, 45). The effect of the compound of Example 121 on DOPA-accumulation was measured by analyzing the levels of DOPA in […]. […] (EM), were dissected out from the brains on ice-cold plates and kept at -70° C. until they were assayed for DOPA by HPL-EC. Statistical analysis was carried out using one-way ANOVA followed by Duncan test.

PCP-induced stereotypy = PCP-induced stereotypy in mice; type: in vivo, CD1 mice; conditions: Mus musculus, read-out: PCP-stereotypy ED50 mg/kg po.
From the text: (§2) Alterations in the mesocortical dopaminergic tract are thought to be responsible for the negative symptoms of schizophrenia (flattening of affect, poverty of speech, lack of volition and drive, loss of feeling, social withdrawal and decreased spontaneous movement). The best animal model of these symptoms is the behavioral changes induced by PCP (phencyclidine). The PCP-induced stereotypy and hypermotility was investigated in mice according to Ljungberg and Ungerstedt (Ljungberg, T., Ungerstedt, U. Pharmacol. Biochem. Behav., 1985, 23, 479,) and Jawitt (Jawitt, D. C. Amer. J. Psychiatry, 1991, 145, 1301). The stereotypy experiments were carried out in male CD1 mice weighing 20-25 g. The animals were starved for 16 hours before treatment without limitation of water availability. In the stereotypy studies, 30 min before treatment, mice were individually placed into small, transparent acrylic cages for habituation. Test substances were administered orally in a volume of 0.1 ml/10 g. 30 min later mice were treated with PCP with an intraperitoneal dose of 7 mg/kg. Stereotyped behavior was observed every 5th min for 60 min and scored from 0 to 4. The scores were summed individually, averaged and compared to the control group.
(§3) In both studies the ED50 values were calculated by the Litchfield-Wilcoxon's method (J. Pharmacol. Exp. Ther. 1949, 96, 49).

[3] = system: conditioned avoidance responses; experiment: conditioned avoidance: pole jumping test in rats; type: in vivo, Long-Evans rats
From the text: For measuring the antipsychotic potential in a non-perturbed dopamine system the pole jumping assay was used (Cook, L., Catania, A. C. Fed. Proc. 1964, 23, 818.)
This method is an active avoidance learning test. Long-Evans rats, weighing 250-450 g, were used in the experiments. Rats are placed in a box (25×25×25 cm) on a grid floor in the center of which there is a pole. After a latency period, light is turned on for a given time then the floor is electrified to deliver an unpleasant footshock. Rats may learn to avoid the shock by jumping up to grasp the pole. As soon as the rat jumps up the light and shock are turned off. Each light-on period lasted for 15 s, shock time for 30 s with an intertrial interval of 15 s. 30 such trials per day were repeated during the learning period until animals reach a minimum of 80% avoidance rate. During the experimental sessions 20 trials/day were run. Test substances were administered ip. in a volume of 0.25 ml/100 g body weight. Significances were calculated by Student's t test.

catalepsy = catalepsy test in rats; type: in vivo, CDBR rats; conditions: for Catalapsy scores: dose 10 mg/kg ip, sum of 8 readings over 4 hours; for cataleptogenic potential: intraperitoneal, result in words
From the text: In order to investigate the potential side effect profile, the catalepsy test in rats has been carried out according to Costall and Naylor (Costall, B., Naylor, R. J. Arzneimittelforschung/Drug Res., 1973, 23, 674).
Catalepsy is defined as a failure to correct an externally imposed, unusual posture over a prolonged time. Neuroleptics which have direct inhibitory action on the nigrostriatal dopamine system induce catalepsy. It may be reflected by the Parkinson-like extrapyramidal symptoms seen clinically with administration of classical antipsychotics. The experiments were carried out in male CDBR rats weighing 300-400 g. The volume of administration was 0.25 ml/100 g body weight. The animals were starved for 16 hours before treatment, water was delivered ad libitum. After intraperitoneal administration of the test substances, the forepaws of the rats were placed on a horizontal stainless steel bar elevated to 10 cm high, while the hind paws remained on a metal plate. The semi-automatic 5-channel catalepsy meter measured the time spent in this unusual posture by an electronic stop-clock. The catalepsy time was scored from 0 to 5 according to the time spent in the unusual posture. […] Means of groups were calculated.

[4] = system: PCP-induced hypermotility; experiment: PCP-induced hypermotility (motor activity meter) in mice; type: in vivo; conditions: Mus musculus, read-out: PCP-hypermotility ED50 mg/kg po.
From the text: as §2
The motor activity was measured in a 4-channel activity meter. The apparatus consisted of acrylic cages (40×40×32 cm) equipped with 16 pairs of infrared photocells. The photocells' beam, when broken, signaled a count, which was then recorded by a computer. A 5 mg/kg intraperitoneal dose of PCP was administered 5 min before the experiment. This dose of PCP induces 110-120% increase of the spontaneous motor activity. Test substances were administered orally 15 min before experiment, and mice were investigated individually in the experimental cages for 60 min. 10 mice/group were used. The total counts for each experimental group were compared to the vehicle treated control group.
as §3

[5] = system: apomorphine-induced stereotyped behavior; experiment: apomorphine-induced stereotypy; type: in vivo, CD1 mice; conditions: for ED50: Mus musculus, read-out: Stereotypy ED50 (mg/kg po.)
From the text: as §1
Apomorphine-induced stereotypy was investigated according to Costall and Naylor (B. Costall and R. J. Naylor, Eur. J. Pharmacol. 1972, 18, 95) in male CD1 mice of 20-25 g body weight after 16 hours deprivation of food. 30 min before treatment mice were individually placed into small, transparent acrylic cages for habituation. Test substances were administered orally in a volume of 0.1 ml/10 g. 30 min later mice were treated with apomorphine HCl (SIGMA) in a subcutaneous dose of 2 mg/kg. […] The scores were summed individually, meaned and compared to the control group. The ED50 values were calculated by Litchfield-Wilcoxon's method (J. Pharmacol. Exp. Ther. 1949, 96, 49,).

PCP-induced locomotion = experiment: PCP induced locomotor activity test (open field); type: in vivo, mice; conditions: all doses (3, 7, 14, 28, 40 mg/kg) by gavage, PCP 5 mg/kg, vs vehicle
Description: The effects of compounds 121 and 183, administered orally, were also evaluated in the PCP induced locomotor activity test. Compound 121 was designated as “Compound A” and Compound 183 was designated as “Compound B” for purposes of this study. In general, the study aimed to test Compounds A and B for potential antipsychotic activity in PCP treated mice.
Compounds A & B were dissolved in 3% Tween: Compound A: 1, 3, 6, 10, and 15 mg/kg; Compound B: 3, 7, 14, 28, and 40 mg/kg; Compounds A+B were administered by gavage.
PCP (5 mg/kg) was dissolved in sterile injectable water.
The open field (“OF”) test assessed both anxiety and locomotor behavior. The open field chambers are Plexiglas square chambers (27.3×27.3×20.3 cm; Med Associates Inc., St Albans, Vt.) surrounded by infrared photobeams (16×16×16) to measure horizontal and vertical activity. The analysis was configured to divide the open field into a center and periphery zone. Distance traveled was measured from horizontal beam breaks as the mouse moved whereas rearing activity was measured from vertical beam breaks.
Mice were brought to the activity experimental room for at least 1 hr acclimation to the experimental room conditions prior to testing. […]
Data was analyzed to show baseline activity (activity during the 30 min prior to PCP injection) and PCP-induced activity (activity during the 60 min after PCP injection).

[6] = system: PCP-induced disruption of PPI; experiment: PCP-induced disruption of pre-pulse inhibition (PPI); conditions: for reversal of PCP-induced disruption of PPI: PCP 8 mg/kg, C57B1/6J mice
From the text: Male C57B1/6J mice from Jackson Laboratories (Bar Harbor, Me.) were used in this study. Mice were received at 6-weeks of age. Upon receipt, mice were assigned unique identification numbers (tail marked) and were group housed in OPTImice cages. All animals remained housed in groups of four during the remainder of the study. […] During the period of acclimation, mice were examined on a regular basis, handled, and weighed to assure adequate health and suitability. Mice were maintained on a 12/12 light/dark cycle with the light on at 6:00 a.m. The room temperature was maintained between 20 and 23° C. with a relative humidity maintained between 30% and 70%. Food and water were provided ad libitum for the duration of the study. In each test, animals were randomly assigned across treatment groups.
All compounds were injected i.p. at a dose volume of 10 ml/kg. […] Phenylcyclohexylpiperidine (PCP) (8 mg/kg) was dissolved in sterile water.
The acoustic startle measured an unconditioned reflex response to external auditory stimulation. […] Mice were placed in the PPI chambers (Med Associates) for a 5 min session of white noise (70 dB) habituation.
After the acclimation period the test session was automatically started. The session started with a habituation block of 6 presentations of the startle stimulus alone, followed by 10 PPI blocks of 6 different types of trials. Trial types are: null (no stimuli), startle (120 dB), startle plus prepulse (4, 8 and 12 dB over background noise i.e. 74, 78 or 82 dB) and prepulse alone (82 dB). Trial types were presented at random within each block.
Each trial started with a 50 ms null period during which baseline movements were recorded. There was a subsequent 20 ms period during which prepulse stimuli were presented and responses to the prepulse measured. After further 100 ms the startle stimuli were presented for 40 ms and responses recorded for 100 ms from startle onset. Responses were sampled every ms. The inter-trial interval was variable with an average of 15 s (range from 10 to 20 s). In startle alone trials the basic auditory startle was measured and in prepulse plus startle trials the amount of inhibition of the normal startle was determined and expressed as a percentage of the basic startle response (from startle alone trials), excluding the startle response of the first habituation block.
Data were analyzed by analysis of variance (ANOVA) followed by post-hoc comparisons with Fisher Tests when appropriate. An effect was considered significant if p<0.05. Data are represented as the mean and standard error to the mean.

[7] = mice, ip. 30 min before apomorphine 2 mg/kg s.c.

Compound: CN1CCN(C2=Nc3cc(Cl)ccc3Nc3ccccc32)CC1 [Clozapine, reference compound]
DOPA levels (pmol/mg prot) ([2]; 20 mg/kg ip): 87.4 ± 9.5 pmol/mg prot | ED50 [1]: 2.64 mg/kg | ED50 (PCP-induced stereotypy): 3.76 mg/kg | MED (mg/kg ip), minimal effective dose (stat. sign.) [3]: 2 mg/kg | Catalapsy scores (catalepsy): 10:0.14 | cataleptogenic potential (catalepsy): lack cataleptogenic potential | ED50 [4]: 1.81 mg/kg | ED50 [5]: 22.9 mg/kg

Compound: CN(C)CCCN1c2ccccc2Sc2ccc(Cl)cc21 [Chlorpromazine, reference compound]
DOPA levels (pmol/mg prot) ([2]; 10 mg/kg ip, NSD-1015 90 min after treatment): 56.4 ± 4.1 pmol/mg prot | effect on levels of DOPA in the EM of rats ([2]; result in words, vs saline): had no effect | ED50 [1, 7]: 1.2 mg/kg | inhibition of apomorphine-induced climbing ([1]; mice, result in words): inhibited both behaviors | Catalapsy scores (catalepsy): 10:8.7 | cataleptogenic potential (catalepsy): induces severe catalepsy | ED50 ([4]; mice, po. 15 min before experiment, PCP 5 mg/kg ip): 1.86 mg/kg | ED50 ([5]; mice, po. 30 min before apomorphine 2 mg/kg s.c.): 3.6 mg/kg | inhibition of apomorphine-induced stereotyped behavior ([5]; mice, result in words): inhibited both behaviors

Compound: COc1cc2c(cc1OC)C(c1ccc(N)c(C)c1)=NN(C1=NOCS1)[C@H](C)C2 [Example 118]
melting point: 194 to 197 °C

Compound: CNC(=O)N1N=C(c2ccccc2N)c2cc(OC)c(OC)cc2CC1C (racemic)
melting point: 88 to 91 °C

Now from value to molecule, other results behind:

melting point: 229 to 230 °C
Compound: COc1cc2c(cc1OC)C(c1ccc(N)cc1)=NN(c1nccs1)[C@H](C)C2 [Example 112]
ED50 [1, 7]: 25 mg/kg

melting point: 156 to 158 °C
Compound: COc1cc2c(cc1OC)C(c1ccc(NC(C)=O)cc1)=NN(c1nccs1)[C@H](C)C2 [Example 183]
ED50 [1, 7]: 8.7 mg/kg | effect on PCP induced locomotion (PCP-induced locomotion): significantly decreased | sedation and lethargy in the mice ([6]; 15 mg/kg i.p. (high dose)): caused sedation and lethargy | reversal of PCP-induced disruption of PPI ([6]; 5, 10, and 15 mg/kg i.p.): significantly reversed | reversal of PCP-induced disruption of PPI ([6]; all doses (1.5, 5, 10, 15 mg/kg) i.p.): significantly reversed
